Assay results taken from patent publication US10632127B2, “Targeted notch pathway inhibitors” (Hoffmann-La Roche Inc., priority 2015, dated 2020).
Counter-ions that a name gives are not always drawn. Like-named read-outs stand apart in the source and are kept apart here.

What was measured:
[1] = molecular target: Notch signal transduction pathway; assay: In vitro Notch signal transduction pathway activity assay (DR215/F2 luciferase reporter); format: cell-based, human; settings: for IC50 for blockade of the Notch pathway, range in words: DR215/F2 cell reporter assay; for IC50: Homo sapiens, 215/F2 reporter cell line, 19 h, mean of at least 3 experiments
Description: The compounds were dissolved in dimethyl sulfoxide (DMSO) at 10 mM stock solution, aliquoted and stored at −4° C. until use, then diluted in PBS or cell culture medium. In the experimental settings, controls containing increasing concentrations of DMSO, corresponding to the amount of DMSO of the diluted compounds were always included. For in vivo experiments, the compounds were dissolved in 0.9% NaCl, incubated 30 min at 40° C. and sonicated for 5 min.
The requirement of proteolytic activation of the prodrugs to inhibit Notch cleavage by the γ-secretase, was investigated using a reporter assay (Table 3). The DR215/F2 cell line expresses a reporter construct designed to monitor the activity of the Notch signal transduction pathway. The DR215/F2 cell line 39 carries two transgenes: the firefly luciferase reporter gene expressed under the control of the Gal4 promoter and the human Notch1 activator gene fused with the yeast Gal4 transcription factor. This assay confirmed that the prodrugs were able to inhibit γ-secretase and the activation of the Notch pathway. The DR215/F2 cell reporter assay was also used to determine the IC50 for blockade of the Notch pathway by all the compounds designed and prepared.
The values were determined using the 215/F2 reporter cell line for Notch activation by the γ-secretase. All values are the mean of at least 3 experiments.
The preparation and characterization of rat brain-derived EC219 endothelial cells have been described in Juillerat-Jeanneret, L. et al. In Vitro Cell. Dev. Biol. 1992, 28A, 537-543. These cells express high levels of APA and γ-GT activities and can be used for determining kinetics in living cells, and were chosen as APA- and γ-GT-positive representative cell models. EC219 cells were grown in DMEM medium containing 1 g/l glucose, 10% heat-inactivated fetal calf serum (FCS, EuroClone, UK) supplemented with 100 U/mL penicillin and 100 μg/mL streptomycin (P/S) on uncoated cell culture plastic ware. The HEK293 and HK2 human kidney cells are available from the ATCC (American Tissue Culture Collection, Manassas, Va., USA). HEK293 cells were grown on uncoated cell culture plastic ware in Iscove modified Dulbecco medium (IMDM, Life Technologies) containing 10% FCS and P/S. HK2 cells were grown on uncoated cell culture plastic ware in DMEM/F-12 GlutaMAX medium (Gibco) containing 5% FCS, P/S, 1% ITS (1.0 mg/ml bovine insulin, 0.55 mg/ml human transferrin and 0.5 μg/ml sodium selenite, Sigma-Aldrich) and 5 ng/ml hydrocortisone. The human HEK293-derived DR215/F2 embryonic kidney cell line, stably transfected with pFR Luc and APP-Notch Gal (plasmid DR215) as described in WO 2006/061136 A2 and Brockhaus, M. Neuroreport 1998 9, 1481-1486, were maintained using IMDM with 10% FCS supplemented with P/S and kept under double-selection with 150 μg/ml G-418 and 50 μg/ml hygromycin B on coated (1:100 Poly-L-lysine) cell culture plastic ware. In this assay, the Notch-Gal4 protein is bound to the cell membrane via its trans-membrane domain. The Notch intracellular domain is released by proteolytic cleavage mediated by the γ-secretase and moves to the cell nucleus where it activates the reporter luciferase gene transcript. Inhibition of γ-secretase thus decreases luciferase activity. Briefly, cultures were grown in 96-well microplates to 80% confluence; the cells were then washed in PBS and exposed to decreasing concentrations of the γ-secretase-inhibitor analogues in complete IMDM culture medium without red phenol at 37° C. for 19 h. Then 75 μl of supernatant from each well was removed and the luciferase activity was determined by adding 25 μl of Steady-Glo luciferase assay reagent (Promega).

[2] = Pharmacokinetic assessment in male Wistar rats (i.v.); format: in vivo, rat; settings: for concentration at 0.25 h / concentration at 0.5 h: rat, intravenous
Description: (§1) For PK evaluation, the compounds were administered i.p to male C57BL/6 mice in suspension (gelatine/saline 7.5%/0.62% in water) using an administration volume of 4 mL/kg. Blood samples were collected in tubes containing EDTA, plasma was separated by centrifugation and stored at −80° C. Liver and kidney samples (˜100 mg aliquots) were homogenized in three volumes of water using Precellys tissue homogenization tubes (precellys.com). 25 μL of each tissue homogenate was further diluted with 25 μL blank plasma to produce the final tissue homogenate for extraction. All samples were analyzed using protein precipitation followed by LC-MS/MS analysis. Briefly, 50 μL plasma or final tissue homogenate were mixed with 50 μL 0.5M HClO4/acetonitrile 9/1 (containing 200 ng/mL internal standard bosentan). Samples were stirred and 300 μL water was added followed by centrifugation at 5600 rpm (4° C., 10 min). 10 μL supernatant was analyzed by LC/MS analysis. Calibration standards in plasma were prepared the same way. The LC column and conditions used were: Phenomenex, Polar RP, 4 μm, 50×2.1 mm at 0.4 mL/min flow rate with a 3 min gradient from 95% solvent A to 95% solvent B (Solvent A: Water/ACN/HCOOH, 90:10:0.1+10 mM NH4 formate; Solvent B: Water/ACN/HCOOH, 10:90:0.1+10 mM NH4 formate). Mass spectrometric conditions were: Thermo TSQ Vantage with positive heated electrospray ionization in MS/MS mode. Compounds mass transitions monitored were m/z 320.7 to 119.9. PK parameters for all studies were calculated using Phoenix WinNonlin Software.
We next determined the stability, tissue distribution and cleavage rate in plasma, liver and kidney of the designed prodrugs in male Wistar rats. In the in vivo screen, the kinetics and distribution of the prodrugs Ac-γ-Glu-SecrI (13a) and Ac-γ-Glu-O-SecrI (13c) were compared with the active γ-secretase inhibitor SecrI (8). After i.v. administration in male Wistar rats, the disappearance of the prodrugs and the formation of the active amine-SecrI (11a), amine-O-SecrI (11b) and SecrI (8) were compared in plasma, liver and kidney (Table 7A-C). First, we determined the pharmacokinetics (PK) behavior of SecrI (8) following i.v. administration (Table 7A). […] Liver and kidney exposure were much higher, with same exposure in liver and kidney. […] The selectivity towards kidney stayed constant over time. The carbonate analogue Ac-γ-Glu-O-SecrI (13c) prodrug was converted to a lower extent than the Ac-γ-Glu-SecrI (13a) to amine-O-SecrI (11b) but more to the linker free γ-secretase inhibitor 8 (Table 7C).
Plasma and tissue concentrations of administered compound (A-C) and formed amine-SecrI (11a), amine-O-SecrI (11b) or SecrI (8) (B-C) were determined following i.v. administration in rats (no standard deviation given due to sparse sampling; n≤3 rats per time point). Numbers in parentheses represent relative amounts with the exposure of kidney arbitrarily set at each time point to 100%. […] BQL=below quantifiable limit.

[3] = Pharmacokinetic assessment in C57BL/6 healthy wild-type mice (i.p.); format: in vivo, mouse; settings: C57BL/6 mice, 10 mg/kg i.p.
Description: as §1
We next determined the stability, tissue distribution and cleavage rate in plasma, liver and kidney of the designed prodrugs in non-diseased mice. In the in vivo screen, the kinetics and distribution of γ-secretase inhibitor prodrugs Ac-γ-Glu-SecrI (13a), Ac-α-Glu-SecrI (15a) and H-α-Glu-SecrI (15b) were compared with the active γ-secretase inhibitor amine-SecrI (11a). After i.p administration (10 mg/kg) in C57BL/6 mice, the disappearance of the prodrugs and the formation of the active amine-SecrI (11a) were compared in plasma, liver and kidney (Table 5). First, we determined the pharmacokinetics (PK) behavior of amine-SecrI (11a) following i.p. administration (Table 5A). […] Liver and kidney exposure were much higher, with approximately 4.5-fold higher exposure in liver compared to kidney. […] The selectivity towards kidney appeared to decrease over time, probably due to fast clearance and re-equilibration of the amine-SecrI (11a). However, the high selectivity at earlier time-points assured that the total exposure over time was much higher in the kidney compared to the liver.

Compound: C[C@H]1Oc2ccc(F)cc2N(CCOC(=O)OCCN)C(=O)[C@H]1NC(=O)[C@@](C)(O)C(=O)NCC(F)(F)C(F)(F)F [Compound 11b, 2-Aminoethyl 2-((2R,3S)-7-fluoro-3-((S)-2-hydroxy-2-methyl-3-oxo-3-(2,2,3,3,3-pentafluoropropylamino)propanamido)-2-methyl-4-oxo-3,4-dihydrobenzo[b][1,4]oxazepin-5(2H)-yl)ethyl carbonate hydrochloride]
- IC50 for blockade of the Notch pathway, range in words [1]: low nanomolar range
- IC50 [1]: 0.5 nM
- Plasma concentration of formed 11b ([2]; 13c 1.5 mg/kg i.v., 0.25 h): BQL
- Plasma concentration of formed 11b ([2]; 13c 1.5 mg/kg i.v., 0.5 h): BQL
- Plasma concentration of formed 11b ([2]; 13c 1.5 mg/kg i.v., 4 h): BQL
- Formed 11b in kidney, relative amount (arbitrarily set to 100%) ([2]; 13c 1.5 mg/kg i.v., 7 h): (100) %
- Plasma concentration of formed 11b ([2]; 13c 1.5 mg/kg i.v., 7 h): BQL
- kidney selectivity, in words ([2]; formed after 13c i.v.): very good kidney selectivity

Compound: CC(=O)N[C@@H](CCC(=O)NCCOC(=O)OCCN1C(=O)[C@@H](NC(=O)[C@@](C)(O)C(=O)NCC(F)(F)C(F)(F)F)[C@@H](C)Oc2ccc(F)cc21)C(=O)O [Compound 13c, (S)-2-acetamido-5-(2-((2-((2R,3S)-7-fluoro-3-((S)-2-hydroxy-2-methyl-3-oxo-3-(2,2,3,3,3-pentafluoropropylamino)propanamido)-2-methyl-4-oxo-3,4-dihydrobenzo[b][1,4]oxazepin-5(2H)-yl)ethoxy)carbonyloxy)ethylamino)-5-oxopentanoic acid]
- IC50 [1]: 170 nM
- Kidney concentration of 13c ([2]; 13c 1.5 mg/kg i.v., 4 h): BQL
- Liver concentration of 13c ([2]; 13c 1.5 mg/kg i.v., 4 h): BQL
- Plasma concentration of 13c ([2]; 13c 1.5 mg/kg i.v., 4 h): BQL
- Kidney concentration of 13c ([2]; 13c 1.5 mg/kg i.v., 7 h): BQL
- Liver concentration of 13c ([2]; 13c 1.5 mg/kg i.v., 7 h): BQL
- Plasma concentration of 13c ([2]; 13c 1.5 mg/kg i.v., 7 h): BQL
- conversion to amine-O-SecrI (11b), in words ([2]; 13c i.v., compared with 13a): lower extent
- conversion to the linker-free γ-secretase inhibitor 8, in words ([2]; i.v.): significantly converted
- concentration at 0.25 h ([2]; kidney, 13c 1.5 mg/kg i.v., 0.25 h, read-out: Kidney concentration of 13c): 20.5 ng/g
- concentration at 0.5 h ([2]; kidney, 13c 1.5 mg/kg i.v., 0.5 h, read-out: Kidney concentration of 13c): 3.8 ng/g
- concentration at 0.25 h ([2]; liver, 13c 1.5 mg/kg i.v., 0.25 h, read-out: Liver concentration of 13c): 196 ng/g
- concentration at 0.5 h ([2]; liver, 13c 1.5 mg/kg i.v., 0.5 h, read-out: Liver concentration of 13c): 32.3 ng/g
- concentration at 0.25 h ([2]; plasma, 13c 1.5 mg/kg i.v., 0.25 h, read-out: Plasma concentration of 13c): 53 ng/mL
- concentration at 0.5 h ([2]; plasma, 13c 1.5 mg/kg i.v., 0.5 h, read-out: Plasma concentration of 13c): 4.6 ng/mL

Compound: C[C@H]1Oc2ccc(F)cc2N(CCOC(=O)NCCNC(=O)[C@@H](N)CCC(=O)O)C(=O)[C@H]1NC(=O)[C@@](C)(O)C(=O)NCC(F)(F)C(F)(F)F [Compound 15b, (S)-4-amino-5-(2-((2-((2R,3S)-7-fluoro-3-((S)-2-hydroxy-2-methyl-3-oxo-3-(2,2,3,3,3-pentafluoropropylamino)propanamido)-2-methyl-4-oxo-3,4-dihydrobenzo[b][1,4]oxazepin-5(2H)-yl)ethoxy)carbonylamino)ethylamino)-5-oxopentanoic acid hydrochloride]
- conversion to amine-SecrI (11a), in words [3]: overall highest conversion
- Kidney concentration of administered compound ([3]; 4 h): BQL
- Plasma concentration of administered compound ([3]; 4 h): BQL
- Kidney concentration of administered compound ([3]; 7 h): BQL
- Plasma concentration of administered compound ([3]; 7 h): BQL
- concentration at 0.5 h ([3]; male, mouse, kidney, ip, read-out: Kidney concentration of administered compound): 8.51 ng/g
- concentration at 0.5 h ([3]; male, mouse, liver, ip, read-out: Liver concentration of administered compound): 277 ng/g
- concentration at 4 h ([3]; male, mouse, liver, ip, 4 h, read-out: Liver concentration of administered compound): 60.7 ng/g
- concentration at 7 h ([3]; male, mouse, liver, ip, 7 h, read-out: Liver concentration of administered compound): 5.78 ng/g
- concentration at 0.5 h ([3]; male, mouse, plasma, ip, read-out: Plasma concentration of administered compound): 3.67 ng/mL
- IC50 for blockade of the Notch pathway, range in words [1]: high nM range
- IC50 [1]: 258 nM
